In PubChem BioAssay AID248 (DTP/NCI, 2004):
Toxic doses and inconclusive results are not listed. No stated cut-off is given here; in the data, active means T/C of 150% or more; inactive means T/C below 125%.

System: L1210 leukemia ip in BDF1 mice, survival T/C
Test: NCI In Vivo Anticancer Drug Screen. Data for tumor model L1210 Leukemia (intraperitoneal) in B6D2F1 (BDF1) mice
Details: endpoint: mean survival time, higher = longer survival
Outline: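 Transplanted-tumor mice were given test agent; controls received vehicle only. Survival readings from the two groups were divided (treated over control).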

[1] = dose: 50.0 mg/kg/injection, schedule: Q01DX009 (ip), vehicle: saline with Tween-80
[2] = dose: 100.0 mg/kg/injection, schedule: Q01DX009 (ip), vehicle: saline with Tween-80
[3] = dose: 100.0 mg/kg/injection, schedule: Q04DX003 (ip), vehicle: saline with Tween-80
[4] = dose: 75.0 mg/kg/injection, schedule: Q04DX003 (ip), vehicle: Klucel (hydroxypropylcellulose) (HPC)
[5] = dose: 150.0 mg/kg/injection, schedule: Q04DX003 (ip), vehicle: Klucel (hydroxypropylcellulose) (HPC)
[6] = dose: 300.0 mg/kg/injection, schedule: Q04DX003 (ip), vehicle: Klucel (hydroxypropylcellulose) (HPC)
[7] = dose: 100.0 mg/kg/injection, schedule: Q01DX001 (ip), vehicle: Klucel (hydroxypropylcellulose) (HPC)
[8] = dose: 200.0 mg/kg/injection, schedule: Q01DX001 (ip), vehicle: Klucel (hydroxypropylcellulose) (HPC)
[9] = dose: 200.0 mg/kg/injection, schedule: Q01DX009 (ip), vehicle: saline with Tween-80
[10] = dose: 20.0 mg/kg/injection, schedule: Q01DX001 (ip), vehicle: saline

Measured: T/C

COC(=O)CC(=O)C=P(c1ccccc1)(c1ccccc1)c1ccccc1
inactive: dose: 12.5 mg/kg/injection, schedule: Q01DX009 (ip), vehicle: saline with Tween-80 98 % of control | dose: 25.0 mg/kg/injection, schedule: Q01DX009 (ip), vehicle: saline with Tween-80 101 % of control | [1] 95 % of control | dose: 75.0 mg/kg/injection, schedule: Q01DX001 (ip), vehicle: saline 96 % of control | [2] 89 % of control | dose: 150.0 mg/kg/injection, schedule: Q01DX001 (ip), vehicle: saline 100 % of control | dose: 300.0 mg/kg/injection, schedule: Q01DX001 (ip), vehicle: saline 93 % of control

CN(C)CCSCC(OC(=O)c1ccccc1)c1ccccc1 (stereo not drawn)
inactive: [3] 94 % of control

O=C(Nc1ccc(F)c(Cl)c1)OCC1CCCO1 (stereo not drawn)
inactive: dose: 6.25 mg/kg/injection, schedule: Q01DX009 (ip), vehicle: Klucel (hydroxypropylcellulose) (HPC) 92 % of control | dose: 12.5 mg/kg/injection, schedule: Q01DX009 (ip), vehicle: Klucel (hydroxypropylcellulose) (HPC) 89 % of control | dose: 100.0 mg/kg/injection, schedule: Q04DX003 (ip), vehicle: Klucel (hydroxypropylcellulose) (HPC) 94 % of control | dose: 200.0 mg/kg/injection, schedule: Q04DX003 (ip), vehicle: Klucel (hydroxypropylcellulose) (HPC) 89 % of control

CC(CC(=O)c1ccc2ccccc2c1)C(=O)O (stereo not drawn)
inactive: [4] 97 % of control | [5] 92 % of control | [6] 107 % of control

CNNC(=O)NC
inactive: dose: 50.0 mg/kg/injection, schedule: Q01DX009 (ip), vehicle: saline 109 % of control | dose: 100.0 mg/kg/injection, schedule: Q01DX009 (ip), vehicle: saline 94 % of control

O=[N+]([O-])c1ccc(N/N=C2\Cc3ccccc3Cc3ccccc32)c([N+](=O)[O-])c1
inactive: dose: 50.0 mg/kg/injection, schedule: Q01DX001 (ip), vehicle: Klucel (hydroxypropylcellulose) (HPC) 90 % of control | [7] 98 % of control | [8] 90 % of control

CC1(c2ccc3ccccc3c2)OCC2(CCCC2)CO1
inactive: dose: 100.0 mg/kg/injection, schedule: Q04DX002 (ip), vehicle: gum acacia 117 % of control | dose: 200.0 mg/kg/injection, schedule: Q04DX002 (ip), vehicle: gum acacia 110 % of control | dose: 400.0 mg/kg/injection, schedule: Q04DX002 (ip), vehicle: gum acacia 103 % of control

Cc1ccc(NC(=O)Nc2ccc(C)c(NC(=O)Nc3ccc(C)c(Cl)c3)c2)cc1Cl
inactive: [1] 90 % of control | [2] 88 % of control | [3] 88 % of control | [9] 94 % of control

O=S1(=O)c2ccc(cc2)N=CC=Nc2ccc1cc2
inactive: [3] 92 % of control | dose: 200.0 mg/kg/injection, schedule: Q04DX003 (ip), vehicle: saline with Tween-80 90 % of control | dose: 400.0 mg/kg/injection, schedule: Q04DX003 (ip), vehicle: saline with Tween-80 89 % of control

CCCCCCCCCCCCCC(=O)O (tested in a mixture with another compound)
inactive: dose: 5.0 mg/kg/injection, schedule: Q01DX001 (ip), vehicle: saline 101 % of control | dose: 10.0 mg/kg/injection, schedule: Q01DX001 (ip), vehicle: saline 95 % of control | [10] 102 % of control | dose: 40.0 mg/kg/injection, schedule: Q01DX001 (ip), vehicle: saline 102 % of control | dose: 80.0 mg/kg/injection, schedule: Q01DX001 (ip), vehicle: saline 90 % of control | dose: 100.0 mg/kg/injection, schedule: Q01DX001 (ip), vehicle: saline 98 % of control

CNCC(=O)Nc1ccc(NC(=O)CNC)cc1
inactive: dose: 100.0 mg/kg/injection, schedule: Q04DX002 (ip), vehicle: Klucel (hydroxypropylcellulose) (HPC) 96 % of control | dose: 200.0 mg/kg/injection, schedule: Q04DX002 (ip), vehicle: Klucel (hydroxypropylcellulose) (HPC) 104 % of control

C(=C\c1cc[n+](CCc2ccccc2)cc1)/c1ccccc1
inactive: dose: 6.25 mg/kg/injection, schedule: Q04DX003 (ip), vehicle: saline with Tween-80 110 % of control | dose: 12.5 mg/kg/injection, schedule: Q04DX003 (ip), vehicle: saline with Tween-80 89 % of control | dose: 25.0 mg/kg/injection, schedule: Q04DX003 (ip), vehicle: saline with Tween-80 101 % of control

COC(=O)c1c(C(=O)O)coc1C(=O)N1CCCC1
inactive: [4] 105 % of control | [7] 100 % of control | [5] 89 % of control | [8] 97 % of control | [6] 91 % of control | dose: 400.0 mg/kg/injection, schedule: Q01DX001 (ip), vehicle: Klucel (hydroxypropylcellulose) (HPC) 105 % of control

O=C(Nc1ccc(C2=NCCN2)cc1)c1cccc(C(=O)Nc2ccc(C3=NCCN3)cc2)c1[N+](=O)[O-]
active: dose: 30.0 mg/kg/injection, schedule: Q01DX Z (ip), vehicle: carboxymethylcellulose (CMC) 198 % of control
inactive: dose: 1.88 mg/kg/injection, schedule: Q01DX Z (ip), vehicle: saline 100 % of control | dose: 3.75 mg/kg/injection, schedule: Q01DX Z (ip), vehicle: saline 100 % of control | dose: 7.5 mg/kg/injection, schedule: Q01DX Z (ip), vehicle: saline 100 % of control | dose: 15.0 mg/kg/injection, schedule: Q01DX Z (ip), vehicle: saline 105 % of control | dose: 30.0 mg/kg/injection, schedule: Q01DX Z (oral), vehicle: saline 103 % of control | dose: 60.0 mg/kg/injection, schedule: Q01DX Z (ip), vehicle: carboxymethylcellulose (CMC) 117 % of control | dose: 60.0 mg/kg/injection, schedule: Q01DX Z (oral), vehicle: saline 105 % of control | dose: 120.0 mg/kg/injection, schedule: Q01DX Z (oral), vehicle: saline 107 % of control | dose: 240.0 mg/kg/injection, schedule: Q01DX Z (oral), vehicle: saline 102 % of control

Nc1ncc(CNc2ccc(C(=O)NC(CCC(=O)O)C(=O)O)cc2)c(N)n1 (stereo not drawn)
inactive: dose: 100.0 mg/kg/injection, schedule: Q01DX001 (ip), vehicle: carboxymethylcellulose (CMC) 98 % of control | dose: 200.0 mg/kg/injection, schedule: Q01DX001 (ip), vehicle: carboxymethylcellulose (CMC) 96 % of control | dose: 400.0 mg/kg/injection, schedule: Q01DX001 (ip), vehicle: carboxymethylcellulose (CMC) 98 % of control

c1ccc2sc(SSN3CCOCC3)nc2c1
inactive: dose: 50.0 mg/kg/injection, schedule: Q01DX009 (ip), vehicle: Klucel (hydroxypropylcellulose) (HPC) 97 % of control | dose: 100.0 mg/kg/injection, schedule: Q01DX009 (ip), vehicle: Klucel (hydroxypropylcellulose) (HPC) 113 % of control | dose: 100.0 mg/kg/injection, schedule: Q04DX003 (ip), vehicle: saline 101 % of control | dose: 200.0 mg/kg/injection, schedule: Q01DX009 (ip), vehicle: Klucel (hydroxypropylcellulose) (HPC) 91 % of control | dose: 200.0 mg/kg/injection, schedule: Q04DX003 (ip), vehicle: saline 92 % of control

C=CC1(O)CCCC1
inactive: [1] 100 % of control | [2] 107 % of control | [9] 96 % of control

NC(Cn1cc(N(CCCl)CCCl)c(=O)[nH]c1=O)C(=O)O (stereo not drawn)
inactive: dose: 2.5 mg/kg/injection, schedule: Q01DX009 (ip), vehicle: water 114 % of control | dose: 4.0 mg/kg/injection, schedule: Q01DX009 (ip), vehicle: saline 108 % of control | dose: 5.0 mg/kg/injection, schedule: Q01DX009 (ip), vehicle: water 122 % of control | dose: 6.0 mg/kg/injection, schedule: Q01DX009 (ip), vehicle: saline 113 % of control | dose: 8.0 mg/kg/injection, schedule: Q01DX009 (ip), vehicle: saline 103 % of control | dose: 9.0 mg/kg/injection, schedule: Q01DX009 (ip), vehicle: saline 111 % of control | dose: 14.0 mg/kg/injection, schedule: Q01DX009 (ip), vehicle: saline 120 % of control | dose: 16.0 mg/kg/injection, schedule: Q01DX009 (ip), vehicle: saline 118 % of control | dose: 19.0 mg/kg/injection, schedule: Q01DX001 (ip), vehicle: saline 97 % of control | [10] 121 % of control | dose: 30.0 mg/kg/injection, schedule: Q01DX001 (ip), vehicle: saline 115 % of control | dose: 33.0 mg/kg/injection, schedule: Q01DX009 (ip), vehicle: saline 98 % of control | dose: 37.5 mg/kg/injection, schedule: Q01DX001 (ip), vehicle: saline 114 % of control | dose: 45.0 mg/kg/injection, schedule: Q01DX009 (ip), vehicle: saline 101 % of control | dose: 75.0 mg/kg/injection, schedule: Q01DX009 (ip), vehicle: saline 103 % of control
